In patent US4626547A, “Antibiotic AM-2604-A, an anti-trichomonas agent, anti-caccidium agent, anti-viral agent and anti-fungal agent containing the same and methods of use of the same” (The Kitasato Institute, priority 1982, dated 1986):
≈ marks a conversion by molar mass, not a printed value. Entries after “also recorded” stand apart in the source; their conditions may differ.

Assays:
DNA or RNA viruses = assay: Antiviral activity (summary); format: cell-based, virus
Gram-negative bacteria = assay: Antibacterial activity against Gram-negative bacteria (summary); format: cell-based
Piricularia oryzae = assay: microbe, parasite or virus in culture; format: cell-based
[1] = system: DIE strain of vaccinia virus (Vac-DIE); assay: microbe, parasite or virus in culture; format: cell-based; details: Orthopoxvirus vaccinia, 96 h; read-out: 50% Effective Dose (ED50)
[2] = system: Herpes virus Type No. 1 (HSV-1); assay: Antiviral plaque-formation reduction in CE cells; format: cell-based; details: Human alphaherpesvirus 1, 72 h, 20 h pretreatment, 3 days, read-out: 50% Effective Dose (ED50)
[3] = system: Newcastle disease virus (NDV); assay: microbe, parasite or virus in culture; format: cell-based; details: avian paramyxovirus 1, 96 h; read-out: 50% Effective Dose (ED50)
Solubility in solvents = format: physicochemical
[4] = system: Vesicular stomatitis virus (VSV); assay: microbe, parasite or virus in culture; format: cell-based; details: 48 h, read-out: 50% Effective Dose (ED50)
Trichomonas foetus = assay: Infection-therapy test of Trichomonas foetus-infected mice; format: in vivo, mice infected with Trichomonas foetus; details: for Number of Mice That Died / Cured Mice / Living Mice with Formation of Ascites / Mice with Trichomonas foetus: oral; for Cured Mice / Living Mice with Formation of Ascites / Mice with Trichomonas foetus: 7 days
Description: An infection-therapy test of Trichomonas foetus-infected mice was performed as follows:
Mice were divided into groups of ten. Trichomonas foetus was cultivated at 37° C. on a Trichocel broth with 5% inactivated calf serum added (produced by BBL Co.) for 48 hours. One milliliter of the Trichomonas foetus-containing solution (4×10^6 cells/ml) was injected intraperitoneally into mice having a weight of about 20 g. […]
The infection-therapy effect was judged as follows:
Seven days after the injection of Trichomonas foetus, the formation of ascites was examined. In the case of mice in which ascites was formed, the ascites were taken out and the presence of Trichomonas foetus was examined using a microscope.

[5] = system: IHD strain of vaccinia virus (Vac-IHD); assay: microbe, parasite or virus in culture; format: cell-based; details: Orthopoxvirus vaccinia, 96 h; read-out: 50% Effective Dose (ED50)
[6] = system: Western equine encephalitis virus (WEE); assay: microbe, parasite or virus in culture; format: cell-based; details: 48 h, read-out: 50% Effective Dose (ED50)
[7] = system: Herpes virus Type No. 2 (HSV-2); assay: Antiviral plaque-formation reduction in CE cells; format: cell-based; details: Human alphaherpesvirus 2, 72 h, 20 h pretreatment, 3 days, read-out: 50% Effective Dose (ED50)
Xanthomonas oryzae = assay: microbe, parasite or virus in culture; format: cell-based
Gram-positive bacteria = assay: Antibacterial activity against Gram-positive bacteria (summary); format: cell-based
Sindbis virus (Sb) = assay: Antiviral plaque-formation reduction in CE cells; format: cell-based; details: 48 h, 20 h pretreatment, 2 days, read-out: 50% Effective Dose (ED50)
fungi [8] = assay: Antifungal activity (summary); format: cell-based
[9] = Toxicity testing, intraperitoneal injection; details: mouse, in vivo, ip, mice
Description: The toxicity testing of the antibiotic AM-2604-A substance was performed using mice by the intraperitoneal injection method.

Eimeria tenella = assay: Effectiveness on coccidium-infected chicken; format: in vivo, white leghorn male chicks infected with Eimeria tenella; details: for Disorder of Cecum, grade - (Normal): chicks per group with grade -; for Disorder of Cecum, grade ± (Minor): chicks per group with grade ±; for Ratio of Increment of Weight: non-infected control = 1.00
Description: The potency of the antibiotic substance on coccidium-infected chickens was determined as follows:
Two-week-old white leghorn male chicks were divided into four groups of ten each. The feed used in this assay was a commercially available chick-breeding standard feed (major components: 19% crude protein, 2.5% crude fat, 5.0% crude fiber, 8.0% crude ash, 0.7% calcium, and 0.55% phosphorus).
One day after the start of feeding, 2×10^4 mature oocysts of Eimeria tenella per chick were orally administered to the chicks of the groups (Groups 1, 2 and 3) except for a non-infected control group (Group 4). Thereafter, the chicks of Groups 1 and 2 were bred by feeding the standard feed containing 0.005% and 0.0l% of the antibiotic substance, respectively, and Groups 3 and 4 were bred by feeding only the standard feed.
During the breeding period, the weight of each chick was measured, and the blood in the feces was observed. Furthermore, the number of oocysts in the feces 7 days after the infection of the oocysts were counted, and the disorder of cecum was examined by necropsy. In this way, the anti-coccidium action of the antibiotic substance was determined.
The items in Table 3 are as follows: [formula]
The amount of blood from the intestine of the chick is judged from the number of blood stains.
+ Minor, but slight disorder is observed.
++ Moderate hypertrophy is observed.
+++ Serious (disorder is very significant)
Number of oocysts per gram of the feces 7 days after the infection

[10] = system: Bacillus subtilis ATCC 6633; assay: MIC by agar dilution method; format: cell-based; details: ATCC6633
Description: (§1) The minimum inhibitory concentrations (MIC) of the antibiotic substance as determined by the agar dilution method are shown in Table 1 below.

[11] = system: Staphylococcus aureus ATCC 65389; assay: MIC by agar dilution method; format: cell-based; details: ATCC65389
Description: as §1

Alternaria kikuchiana = assay: MIC by agar dilution method; format: cell-based
Description: as §1

Microsporum gypseum = assay: MIC by agar dilution method; format: cell-based; details: Nannizzia gypsea
Description: as §1

Saccharomyces sake = assay: MIC by agar dilution method; format: cell-based
Description: as §1

[12] = system: Proteus vulgarius IFO 3167; assay: MIC by agar dilution method; format: cell-based
Description: as §1

[13] = system: Mycobacterium smegmatis ATCC 607; assay: MIC by agar dilution method; format: cell-based; details: Mycolicibacterium smegmatis, ATCC607
Description: as §1

Aspergillus niger = assay: MIC by agar dilution method; format: cell-based
Description: as §1

Mucor racemosus = assay: MIC by agar dilution method; format: cell-based
Description: as §1

Fusarium oxysporum = assay: MIC by agar dilution method; format: cell-based
Description: as §1

Monilinia fructicola = assay: MIC by agar dilution method; format: cell-based
Description: as §1

[14] = system: Micrococcus luteus ATCC 9341; assay: MIC by agar dilution method; format: cell-based; details: ATCC9341
Description: as §1

Botrytis cinerea = assay: MIC by agar dilution method; format: cell-based
Description: as §1

[15] = system: Trichophyton interdigitale; assay: MIC by agar dilution method; format: cell-based
Description: as §1

Escherichia coli NIHJ = assay: MIC by agar dilution method; format: cell-based
Description: as §1

Candida albicans = assay: MIC by agar dilution method; format: cell-based
Description: as §1

fungi [16] = details: known antibiotic substances, literature; cited from earlier work
[17] = drug amount administered 4 mg/kg
[18] = drug amount administered 8 mg/kg

## C/C=C/C1OC(O)(C(C)C(O)C(C)C2OC(=O)C(OC)=CC(C)=CC(C)C(O)C(CC)C(O)C(C)CC(C)=CC=CC2OC)CC(OC(=O)/C=C/C(=O)NC2=C(O)CCC2=O)C1C (stereo not shown) [AM-2604-A]
DNA or RNA viruses
  activity against viruses (in words): high inhibitory activity; also recorded: active
Gram-negative bacteria
  activity against Gram-negative bacteria (in words): little antibacterial activity
Piricularia oryzae
  MIC: 12.5 µg/mL (≈ 14.1 µM)
[1]
  EC50: 0.0003 µg/mL (≈ 0.000339 µM)
[2]
  EC50: 0.0003 µg/mL (≈ 0.000339 µM)
[3]
  EC50: 0.0003 µg/mL (≈ 0.000339 µM)
Solubility in solvents; chloroform, acetone, ethyl acetate
  Solubility in organic solvents such as chloroform, acetone, and ethyl acetate: Soluble
Solubility in solvents; lower alcohols
  Solubility in lower alcohols: sparingly soluble
Solubility in solvents; n-hexane and water
  Solubility in n-hexane and water: insoluble
[4]
  EC50: 0.0003 µg/mL (≈ 0.000339 µM)
Trichomonas foetus; [17]
  Number of Mice That Died: 2/10
  Cured Mice: 5/10
  Living Mice with Formation of Ascites: 2/10
  Mice with Trichomonas foetus: 5/10
Trichomonas foetus; [18]
  Number of Mice That Died: 1/10
  Cured Mice: 8/10
  Living Mice with Formation of Ascites: 1/10
  Mice with Trichomonas foetus: 2/10
Trichomonas foetus; summary of Table 4
  anti-trichomonas action (in words): excellent anti-trichomonas action; also recorded: active
[5]
  EC50: 0.0003 µg/mL (≈ 0.000339 µM)
[6]
  EC50: 0.0003 µg/mL (≈ 0.000339 µM)
[7]
  EC50: 0.0003 µg/mL (≈ 0.000339 µM)
Xanthomonas oryzae
  MIC: > 50 µg/mL
Gram-positive bacteria
  activity against Gram-positive bacteria (in words): little antibacterial activity; also recorded: almost inactive
Sindbis virus (Sb)
  EC50: 0.0005 µg/mL (≈ 0.000564 µM)
Fungi [8]
  activity against fungi (in words): active
[9]
  LD50: 3 mg/kg
Eimeria tenella; Group 1, 0.005% in feed
  Increment of Weight: 1.83
  Disorder of Cecum, grade - (Normal): 8/10
  Disorder of Cecum, grade ± (Minor): 1/10
  Ratio of Increment of Weight: 0.99
Eimeria tenella; Group 1, 0.005% in feed, chicks per group with grade +
  Disorder of Cecum, grade + (Minor, but slight disorder is observed): 1/10
Eimeria tenella; Group 2, 0.01% in feed
  Increment of Weight: 1.86
  Disorder of Cecum, grade - (Normal): 9/10
  Disorder of Cecum, grade ± (Minor): 1/10
  Ratio of Increment of Weight: 1.01
Eimeria tenella; Group 2, 0.01% in feed, 7 days after the infection
  Number of Oocysts (on the average): 0 per gram of the feces
Eimeria tenella; summary of Table 3
  anticoccidium action (in words): excellent anticoccidium action; also recorded: active
[10]
  MIC: > 100 µg/mL
[11]
  MIC: > 100 µg/mL
Alternaria kikuchiana
  MIC: > 50 µg/mL
Microsporum gypseum
  MIC: 50 µg/mL (≈ 56.4 µM)
Saccharomyces sake
  MIC: 100 µg/mL (≈ 113 µM)
[12]
  MIC: > 100 µg/mL
[13]
  MIC: > 100 µg/mL
Aspergillus niger
  MIC: > 100 µg/mL
Mucor racemosus
  MIC: 50 µg/mL (≈ 56.4 µM)
Fusarium oxysporum
  MIC: > 100 µg/mL
Monilinia fructicola
  MIC: 12.5 µg/mL (≈ 14.1 µM)
[14]
  MIC: > 100 µg/mL
Botrytis cinerea
  MIC: > 50 µg/mL
[15]
  MIC: 50 µg/mL (≈ 56.4 µM)
Escherichia coli NIHJ
  MIC: > 100 µg/mL
Candida albicans
  MIC: > 100 µg/mL

## COC1=CC(C)=CC(C)C(O)C(C)CC(C)=CC=CC(OC)C(C(C)C(O)C(C)C2(O)CC(OC(=O)/C=C/C(=O)NC3=C(O)CCC3=O)C(C)C(C(C)C)O2)OC1=O (stereo not shown) [Setamycin]
Fungi [16]
  activity against fungi of known antibiotics (in words): active
